Measured values from PubChem BioAssay (NCI).
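GI50 marks 50% less growth. The concentration for full growth arrest is given as TGI.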

Legend:
Experiment in all cases: inhibition of tumour cell growth, NCI panel, 384-well format
OVCAR-5 ovarian = tested on: OVCAR-5 ovarian
OVCAR-3 ovarian = tested on: OVCAR-3 ovarian
UACC-62 melanoma = tested on: UACC-62 melanoma
PC-3 prostate = tested on: PC-3 prostate
SF-295 CNS = tested on: SF-295 CNS
SK-MEL-2 melanoma = tested on: SK-MEL-2 melanoma
CAKI-1 renal = tested on: CAKI-1 renal
A549 NSCLC = tested on: A549 NSCLC
DU-145 prostate = tested on: DU-145 prostate
T-47D breast = tested on: T-47D breast
MDA-MB-231 breast = tested on: MDA-MB-231 breast
NCI-H460 NSCLC = tested on: NCI-H460 NSCLC
ACHN renal = tested on: ACHN renal
HL-60(TB) leukemia = tested on: HL-60(TB) leukemia
HS 578T breast = tested on: HS 578T breast
U251 glioblastoma = tested on: U251 glioblastoma
786-0 renal = tested on: 786-0 renal
HOP-62 NSCLC = tested on: HOP-62 NSCLC
OVCAR-8 ovarian = tested on: OVCAR-8 ovarian
MDA-MB-468 breast = tested on: MDA-MB-468 breast
EKVX NSCLC = tested on: EKVX NSCLC
COLO 205 colon = tested on: COLO 205 colon
SW-620 colon = tested on: SW-620 colon
HOP-92 NSCLC = tested on: HOP-92 NSCLC
SK-MEL-28 melanoma = tested on: SK-MEL-28 melanoma
NCI-H23 lung = tested on: NCI-H23 lung
BT-549 breast = tested on: BT-549 breast
MALME-3M melanoma = tested on: MALME-3M melanoma
HT29 colon = tested on: HT29 colon
HCC-2998 colon = tested on: HCC-2998 colon
M14 melanoma = tested on: M14 melanoma
MOLT-4 leukemia = tested on: MOLT-4 leukemia
HCT-15 colon = tested on: HCT-15 colon
A498 renal = tested on: A498 renal
SK-MEL-5 melanoma = tested on: SK-MEL-5 melanoma
RPMI-8226 leukemia = tested on: RPMI-8226 leukemia
SF-539 CNS = tested on: SF-539 CNS
MDA-MB-435 melanoma = tested on: MDA-MB-435 melanoma
SK-OV-3 ovarian = tested on: SK-OV-3 ovarian
SNB-19 CNS = tested on: SNB-19 CNS
KM12 colon = tested on: KM12 colon
NCI-H322M lung = tested on: NCI-H322M lung
TK-10 renal = tested on: TK-10 renal
SNB-75 CNS = tested on: SNB-75 CNS
CCRF-CEM leukemia = tested on: CCRF-CEM leukemia
SF-268 CNS = tested on: SF-268 CNS
NCI/ADR-RES ovarian = tested on: NCI/ADR-RES ovarian
NCI-H522 lung = tested on: NCI-H522 lung
SR leukemia = tested on: SR leukemia
NCI-H226 lung = tested on: NCI-H226 lung
RXF 393 renal = tested on: RXF 393 renal
MCF7 breast = tested on: MCF7 breast
OVCAR-4 ovarian = tested on: OVCAR-4 ovarian
IGROV1 ovarian = tested on: IGROV1 ovarian
UACC-257 melanoma = tested on: UACC-257 melanoma
UO-31 renal = tested on: UO-31 renal
HCT-116 colon = tested on: HCT-116 colon
SN12C renal = tested on: SN12C renal
K-562 leukemia = tested on: K-562 leukemia

## N#C[C@@H]1C(n2ccc(N)nc2=O)O[C@H](CO)[C@H]1O (some centres undefined)
OVCAR-5 ovarian
  GI50: 37.1 µM
  TGI: > 100 µM
OVCAR-3 ovarian
  GI50: 13.9 µM
  TGI: > 100 µM
UACC-62 melanoma
  GI50: 3.35 µM
  TGI: 34.4 µM
PC-3 prostate
  GI50: 36.4 µM
  TGI: > 100 µM
SF-295 CNS
  GI50: 2.22 µM
  TGI: 44.8 µM
SK-MEL-2 melanoma
  GI50: 2.75 µM
  TGI: 7.76 µM
CAKI-1 renal
  GI50: 20 µM
  TGI: > 100 µM
A549 NSCLC
  GI50: 1.25 µM
  TGI: 71 µM
DU-145 prostate
  GI50: 0.54 µM
  TGI: 35.3 µM
T-47D breast
  GI50: > 100 µM
  TGI: > 100 µM
MDA-MB-231 breast
  GI50: 17.1 µM
  TGI: > 100 µM
NCI-H460 NSCLC
  GI50: 0.283 µM
  TGI: 10.5 µM
ACHN renal
  GI50: 14.5 µM
  TGI: 35.6 µM
HL-60(TB) leukemia
  GI50: 0.315 µM
  TGI: 0.728 µM
HS 578T breast
  GI50: 2.01 µM
  TGI: > 100 µM
U251 glioblastoma
  GI50: 3.78 µM
  TGI: 67.7 µM
786-0 renal
  GI50: 0.418 µM
  TGI: 46.8 µM
HOP-62 NSCLC
  GI50: 0.34 µM
  TGI: 16.7 µM
OVCAR-8 ovarian
  GI50: 0.962 µM
  TGI: 20.9 µM
MDA-MB-468 breast
  GI50: 0.314 µM
  TGI: 0.824 µM
EKVX NSCLC
  GI50: > 100 µM
  TGI: > 100 µM
COLO 205 colon
  GI50: 2.28 µM
  TGI: 17.7 µM
SW-620 colon
  GI50: 34.9 µM
  TGI: > 100 µM
HOP-92 NSCLC
  GI50: 3.17 µM
  TGI: 93.8 µM
SK-MEL-28 melanoma
  GI50: 2.34 µM
  TGI: 9.71 µM
NCI-H23 lung
  GI50: 0.569 µM
  TGI: 12.2 µM
BT-549 breast
  GI50: 3.56 µM
  TGI: > 100 µM
MALME-3M melanoma
  GI50: 1.21 µM
  TGI: 7.34 µM
HT29 colon
  GI50: > 100 µM
  TGI: > 100 µM
HCC-2998 colon
  GI50: 0.893 µM
  TGI: 18.4 µM
M14 melanoma
  GI50: 0.543 µM
  TGI: 4.47 µM
MOLT-4 leukemia
  TGI: 0.0141 µM
HCT-15 colon
  GI50: 9.45 µM
  TGI: > 100 µM
A498 renal
  GI50: 0.688 µM
  TGI: 14.4 µM
SK-MEL-5 melanoma
  GI50: 3.52 µM
  TGI: 44.4 µM
RPMI-8226 leukemia
  GI50: 6.73 µM
  TGI: 55.9 µM
SF-539 CNS
  GI50: 4.18 µM
  TGI: > 100 µM
MDA-MB-435 melanoma
  GI50: 85 µM
  TGI: > 100 µM
SK-OV-3 ovarian
  GI50: 1.32 µM
  TGI: 21.9 µM
SNB-19 CNS
  GI50: 0.849 µM
  TGI: 47.4 µM
KM12 colon
  GI50: 8.14 µM
  TGI: > 100 µM
NCI-H322M lung
  GI50: 45.8 µM
  TGI: > 100 µM
TK-10 renal
  GI50: > 100 µM
  TGI: > 100 µM
SNB-75 CNS
  GI50: 13.8 µM
  TGI: 85.8 µM
CCRF-CEM leukemia
  GI50: 0.0275 µM
  TGI: 0.125 µM
SF-268 CNS
  GI50: 0.632 µM
  TGI: 27.7 µM
NCI/ADR-RES ovarian
  GI50: 6.95 µM
  TGI: 32.1 µM
NCI-H522 lung
  GI50: 2.03 µM
  TGI: 79.6 µM
SR leukemia
  GI50: 1.92 µM
  TGI: 3.54 µM
NCI-H226 lung
  GI50: 3.7 µM
  TGI: 32.4 µM
RXF 393 renal
  GI50: 24.4 µM
  TGI: 70.3 µM
MCF7 breast
  GI50: 1.58 µM
  TGI: > 100 µM
OVCAR-4 ovarian
  GI50: > 100 µM
  TGI: > 100 µM
IGROV1 ovarian
  GI50: > 100 µM
  TGI: > 100 µM
UACC-257 melanoma
  GI50: 31.9 µM
  TGI: > 100 µM

## CC(C)[C@H]1C(=O)N[C@@H](CCCN=C(N)N)C(=O)NCC(=O)N[C@@H](CC(=O)O)C(=O)N[C@H](Cc2ccccc2)C(=O)N1C
OVCAR-5 ovarian
  GI50: 74.5 µM
  TGI: > 100 µM
OVCAR-3 ovarian
  GI50: 53.9 µM
  TGI: > 100 µM
UACC-62 melanoma
  GI50: 70.8 µM
  TGI: > 100 µM
PC-3 prostate
  GI50: > 100 µM
  TGI: > 100 µM
UO-31 renal
  GI50: 5.4 µM
  TGI: 99.4 µM
SF-295 CNS
  GI50: > 100 µM
  TGI: > 100 µM
SK-MEL-2 melanoma
  GI50: > 100 µM
  TGI: > 100 µM
CAKI-1 renal
  GI50: 0.72 µM
  TGI: 14.4 µM
A549 NSCLC
  GI50: 39.3 µM
  TGI: > 100 µM
DU-145 prostate
  GI50: 8.01 µM
  TGI: > 100 µM
T-47D breast
  GI50: 38.3 µM
  TGI: > 100 µM
MDA-MB-231 breast
  GI50: 35.5 µM
  TGI: > 100 µM
NCI-H460 NSCLC
  GI50: 58.3 µM
  TGI: > 100 µM
ACHN renal
  GI50: 4.33 µM
  TGI: > 100 µM
HL-60(TB) leukemia
  GI50: 42.7 µM
  TGI: > 100 µM
HS 578T breast
  GI50: 3.76 µM
  TGI: > 100 µM
U251 glioblastoma
  GI50: 8.88 µM
  TGI: > 100 µM
786-0 renal
  GI50: 7.76 µM
  TGI: > 100 µM
HOP-62 NSCLC
  GI50: 4.51 µM
  TGI: > 100 µM
OVCAR-8 ovarian
  GI50: 11 µM
  TGI: > 100 µM
MDA-MB-468 breast
  GI50: 59.8 µM
  TGI: > 100 µM
EKVX NSCLC
  GI50: 2.3 µM
  TGI: 9.86 µM
COLO 205 colon
  GI50: > 100 µM
  TGI: > 100 µM
SW-620 colon
  GI50: 37.8 µM
  TGI: > 100 µM
HOP-92 NSCLC
  GI50: 6.51 µM
  TGI: > 100 µM
HCT-116 colon
  GI50: 26.7 µM
  TGI: > 100 µM
SK-MEL-28 melanoma
  GI50: > 100 µM
  TGI: > 100 µM
NCI-H23 lung
  GI50: > 100 µM
  TGI: > 100 µM
BT-549 breast
  GI50: 2.13 µM
  TGI: > 100 µM
MALME-3M melanoma
  GI50: > 100 µM
  TGI: > 100 µM
HT29 colon
  GI50: 53.1 µM
  TGI: > 100 µM
M14 melanoma
  GI50: > 100 µM
  TGI: > 100 µM
MOLT-4 leukemia
  GI50: 5.83 µM
  TGI: 18 µM
HCT-15 colon
  GI50: > 100 µM
  TGI: > 100 µM
A498 renal
  GI50: 0.765 µM
  TGI: > 100 µM
SK-MEL-5 melanoma
  GI50: > 100 µM
  TGI: > 100 µM
SF-539 CNS
  GI50: 27.2 µM
  TGI: > 100 µM
MDA-MB-435 melanoma
  GI50: > 100 µM
  TGI: > 100 µM
SK-OV-3 ovarian
  GI50: 41.8 µM
  TGI: > 100 µM
SNB-19 CNS
  GI50: 15.7 µM
  TGI: > 100 µM
KM12 colon
  GI50: 42.5 µM
  TGI: > 100 µM
NCI-H322M lung
  GI50: > 100 µM
  TGI: > 100 µM
TK-10 renal
  GI50: 2 µM
  TGI: > 100 µM
SNB-75 CNS
  GI50: 0.226 µM
  TGI: 0.871 µM
SF-268 CNS
  GI50: 3.29 µM
  TGI: > 100 µM
NCI-H522 lung
  GI50: 3.98 µM
  TGI: > 100 µM
SR leukemia
  GI50: 2.59 µM
  TGI: 12.2 µM
NCI-H226 lung
  GI50: 5.9 µM
  TGI: > 100 µM
SN12C renal
  GI50: > 100 µM
  TGI: > 100 µM
K-562 leukemia
  GI50: 37.7 µM
  TGI: > 100 µM
RXF 393 renal
  GI50: 0.194 µM
  TGI: 0.858 µM
MCF7 breast
  GI50: 13.9 µM
  TGI: > 100 µM
OVCAR-4 ovarian
  GI50: 7.1 µM
  TGI: > 100 µM
IGROV1 ovarian
  GI50: 2.38 µM
  TGI: > 100 µM
UACC-257 melanoma
  GI50: > 100 µM
  TGI: > 100 µM
